The values that follow come from patent US7897371B2, “Activation of mutated RAC-PK” (Novartis AG, priority 1995, dated 2011).

In assay [1] the test system is RAC-PKα.
The test system of assay [2] is MAPKAP kinase-1. Description: MAPKAP kinase-1 activation by insulin in L6 myotubes. In kind it is cell-based. The source says:
(d)—As (c) except that MAPKAP kinase-1 was immunoprecipitated from the lysates and assayed with S6 peptide (filled circles).

Assay [3] deals with GSK3. Type of assay: cell-based.
Assay [4] has as its target T1, RAC-PKα (Homo sapiens, UniProt P31749, T308A).
T1 construct: made in house; host or cells: COS-1 cells (DEAE-dextran transfection, serum-starved), immunoprecipitated with 12CA5 antibody
Type of assay: biochemical. Conditions: COS-1 cells.

In assay [5] the test system is MAPKAP kinase-2. Type of assay: cell-based.
Assay [6] has as its system RAC-PKα. In kind it is cell-based, human.
Assay [7] has as its target T2, p70 S6 kinase (Rattus norvegicus, UniProt P67999).
T2 construct: from tissue; host or cells: rat liver
Description: Protein kinase inhibition assay, p70 S6 kinase (peptide […] substrate). Type of assay: biochemical.

For assay [8], the target named is MAPKK-1 (Homo sapiens, UniProt Q02750). Put plainly: Protein kinase inhibition assay, MAPKK-1. Type of assay: biochemical. Here is the method:
(§1) After incubation on ice for 10 minutes, the reaction was started by the addition of 10µL of 50 mM magnesium acetate and 0.5 mM [.gamma^32P]ATP (100-200 cpm/pmol). For the assay of mixed isoforms of PKC 20µM diacylglycerol, 0.5 mM CaCl.sub2 and 100µM phosphatidylsene were also present in the incubations. The assays were carried out for 15 minutes at 30° C., then terminated and analyzed as described. See Alessi et al., Methods Enzymol, Vol. 255, pp. 279-290 (1995). One unit of activity was that amount of enzyme that catalyzed the phosphorylation of 1 nmol os substrate in 1 minute. The final concentration of DMSO in each assay was 1% (by vol). […] Mixed isoforms of PKC were assayed using histone H1 as substrate, while MAPKAP-K11 and p70 S6 kinase were assayed using the peptide […] (SEQ ID NO: 14). See Leighton et al. (1995), supra. PK B was assayed with the peptide […] [9] (SEQ ID NO: 5) and MAPKAP-K2 was assayed with the peptide […] (SEQ ID NO: 27). See Stokoe, Caudwell, Cohen and Cohen, Biochem J, Vol. 296, Pt. 3, pp. 843-849 (1993). p42 MAP kinase was assayed using MBP, and MAPKK-1 and c-Raf1 were assayed as described in Alessi et al., Methods Enzymol (1995), supra.

For assay [9], the target named is mixed isoforms of PKC. Description: Protein kinase inhibition assay, mixed isoforms of PKC (histone H1 substrate). Type of assay: biochemical. Here is the method:
as §1

Assay [10] addresses PK B (Homo sapiens, UniProt P31749). Description: Protein kinase inhibition assay, PK B (peptide […] substrate). Type of assay: biochemical. The protocol:
as §1

In assay [11] the target is T3, MAPKAP-K1β (Oryctolagus cuniculus, UniProt A0A5F9C4L9).
T3 construct: from tissue; host or cells: rabbit skeletal muscle
T3 sequence (A0A5F9C4L9 1-740): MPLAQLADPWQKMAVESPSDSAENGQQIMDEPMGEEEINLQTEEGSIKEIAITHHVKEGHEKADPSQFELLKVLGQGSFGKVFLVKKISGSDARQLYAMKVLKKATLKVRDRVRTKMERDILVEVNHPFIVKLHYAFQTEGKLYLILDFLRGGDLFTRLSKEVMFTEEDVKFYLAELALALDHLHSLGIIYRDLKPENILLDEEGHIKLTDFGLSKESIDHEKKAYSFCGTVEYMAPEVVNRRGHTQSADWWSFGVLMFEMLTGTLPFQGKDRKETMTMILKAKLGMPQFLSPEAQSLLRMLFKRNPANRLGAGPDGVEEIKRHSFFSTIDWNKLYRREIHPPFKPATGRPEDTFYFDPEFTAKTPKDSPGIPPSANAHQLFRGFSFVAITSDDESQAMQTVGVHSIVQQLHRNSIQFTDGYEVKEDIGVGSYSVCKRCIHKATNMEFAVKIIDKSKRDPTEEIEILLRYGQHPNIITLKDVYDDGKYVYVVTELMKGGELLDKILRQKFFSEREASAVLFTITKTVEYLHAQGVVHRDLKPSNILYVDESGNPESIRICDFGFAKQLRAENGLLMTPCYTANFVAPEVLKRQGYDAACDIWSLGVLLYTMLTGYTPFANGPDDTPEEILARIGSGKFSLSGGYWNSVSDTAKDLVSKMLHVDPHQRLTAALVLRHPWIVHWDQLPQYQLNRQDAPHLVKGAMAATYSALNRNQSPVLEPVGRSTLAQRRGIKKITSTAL
Put plainly: Protein kinase inhibition assay, MAPKAP-K1β (peptide […] substrate). In kind it is biochemical, rabbit.

For assay [12], the target named is c-Raf1 (Homo sapiens, UniProt P04049). Description: Protein kinase inhibition assay, c-Raf1. In kind it is biochemical. The protocol: as §1
Sequence of c-Raf1 (P04049 whole entry): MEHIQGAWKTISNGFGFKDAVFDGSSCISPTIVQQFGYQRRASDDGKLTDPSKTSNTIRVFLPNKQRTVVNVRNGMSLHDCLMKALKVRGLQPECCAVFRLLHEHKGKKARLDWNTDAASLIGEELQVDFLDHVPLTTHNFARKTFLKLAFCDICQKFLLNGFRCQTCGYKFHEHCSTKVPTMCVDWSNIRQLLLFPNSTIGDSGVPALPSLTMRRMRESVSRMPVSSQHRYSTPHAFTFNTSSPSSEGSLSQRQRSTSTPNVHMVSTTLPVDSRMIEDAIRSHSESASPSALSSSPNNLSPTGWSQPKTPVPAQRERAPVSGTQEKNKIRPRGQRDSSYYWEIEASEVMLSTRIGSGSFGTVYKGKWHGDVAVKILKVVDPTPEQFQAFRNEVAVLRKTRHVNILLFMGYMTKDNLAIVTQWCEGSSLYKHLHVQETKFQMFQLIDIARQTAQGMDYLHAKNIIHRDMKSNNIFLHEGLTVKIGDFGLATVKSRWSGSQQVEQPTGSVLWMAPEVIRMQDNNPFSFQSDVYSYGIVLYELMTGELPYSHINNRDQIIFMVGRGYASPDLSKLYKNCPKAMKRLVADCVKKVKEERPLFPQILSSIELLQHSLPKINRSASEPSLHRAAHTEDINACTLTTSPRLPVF
Assay [13] addresses p42 MAP kinase (Homo sapiens, UniProt P28482). Put plainly: Protein kinase inhibition assay, p42 MAP kinase (MBP substrate). Type of assay: biochemical. Here is the method: as §1
In assay [14] the test system is RAC-PKα. The note with it: 293 cells.
The subject of assay [15] is RAC-PKα. In kind it is biochemical, human. The note with it: expressed in COS-1 cells, without MAPKAP kinase-2.
Assay [16] concerns GSK3β. Type of assay: cell-based, human.
Sequence of GSK3β (P49841 whole entry): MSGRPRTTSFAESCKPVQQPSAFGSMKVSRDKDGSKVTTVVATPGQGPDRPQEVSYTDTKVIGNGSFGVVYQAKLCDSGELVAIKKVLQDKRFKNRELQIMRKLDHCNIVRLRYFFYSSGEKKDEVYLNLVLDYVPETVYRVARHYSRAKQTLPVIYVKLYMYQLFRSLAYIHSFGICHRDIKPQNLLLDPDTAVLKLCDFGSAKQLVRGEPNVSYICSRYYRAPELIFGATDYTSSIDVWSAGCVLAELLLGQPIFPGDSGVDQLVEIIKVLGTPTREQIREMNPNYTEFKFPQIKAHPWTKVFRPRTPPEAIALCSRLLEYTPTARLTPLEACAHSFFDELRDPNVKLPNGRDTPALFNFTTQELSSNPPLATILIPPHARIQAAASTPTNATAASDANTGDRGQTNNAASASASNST
The target of assay [17] is T4, MAPKAP-K2 (Homo sapiens, UniProt P49137).
T4 construct: cDNA encoding residues 46-400 of human MAPKAP kinase-2 was expressed in E. coli as a GST fusion protein; GST; made in house; host or cells: E. coli
T4 sequence (P49137 46-400): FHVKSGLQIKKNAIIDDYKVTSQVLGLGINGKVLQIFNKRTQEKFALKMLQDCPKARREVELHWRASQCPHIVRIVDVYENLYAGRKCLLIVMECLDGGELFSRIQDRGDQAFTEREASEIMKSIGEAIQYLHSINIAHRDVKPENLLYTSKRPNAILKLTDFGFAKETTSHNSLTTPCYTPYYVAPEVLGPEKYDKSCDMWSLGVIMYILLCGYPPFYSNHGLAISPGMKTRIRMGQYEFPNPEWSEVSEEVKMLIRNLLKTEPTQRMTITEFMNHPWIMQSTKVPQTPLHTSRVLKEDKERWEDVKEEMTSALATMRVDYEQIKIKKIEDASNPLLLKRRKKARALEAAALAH
Description: Protein kinase inhibition assay, MAPKAP-K2 (peptide […] substrate). Type of assay: biochemical. The protocol: as §1

In assay [18] the test system is p70s6k-Myc. Description: Transient cotransfection of RAC-PKα with p70s6k-Myc. In kind it is cell-based. Conditions: coexpression. Here is the method: To examine this possibility, the regulation of p70^[…] is investigated in a transient cotransfection assay using human 293 cells. RAC-PKα constructs are prepared by ligating the RAC-PKα cDNA [see Jones et al. (1991), supra] in-frame to the initiator methionine, in the mammalian expression vector pECE. The construct is also subcloned into a CMV promoter-driven expression vector. The construct is confirmed by restriction analysis and sequencing. Constructs expressing Myc-tagged p70^[…] are obtained from Dr. G. Thomas, […] Institut, Basel, Switzerland. Constructs are transfected into COS cells using standard procedures.

Where two headings read alike, the source gives them in different places.

T2 sequence (P67999 24-525): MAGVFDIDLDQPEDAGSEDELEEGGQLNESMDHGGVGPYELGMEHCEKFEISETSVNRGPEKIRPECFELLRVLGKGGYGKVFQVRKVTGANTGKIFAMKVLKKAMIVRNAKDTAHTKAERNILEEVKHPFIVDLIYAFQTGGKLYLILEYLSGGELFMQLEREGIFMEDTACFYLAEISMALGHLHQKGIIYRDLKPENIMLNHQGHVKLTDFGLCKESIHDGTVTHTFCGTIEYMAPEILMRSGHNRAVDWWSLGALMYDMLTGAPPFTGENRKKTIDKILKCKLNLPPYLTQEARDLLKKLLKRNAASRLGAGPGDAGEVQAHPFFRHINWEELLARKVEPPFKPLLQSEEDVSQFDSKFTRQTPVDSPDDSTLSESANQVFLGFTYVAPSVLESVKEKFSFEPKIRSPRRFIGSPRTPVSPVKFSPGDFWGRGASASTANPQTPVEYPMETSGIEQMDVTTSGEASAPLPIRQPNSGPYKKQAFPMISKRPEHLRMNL
Sequence of MAPKK-1 (Q02750 whole entry, species assumed, canonical isoform): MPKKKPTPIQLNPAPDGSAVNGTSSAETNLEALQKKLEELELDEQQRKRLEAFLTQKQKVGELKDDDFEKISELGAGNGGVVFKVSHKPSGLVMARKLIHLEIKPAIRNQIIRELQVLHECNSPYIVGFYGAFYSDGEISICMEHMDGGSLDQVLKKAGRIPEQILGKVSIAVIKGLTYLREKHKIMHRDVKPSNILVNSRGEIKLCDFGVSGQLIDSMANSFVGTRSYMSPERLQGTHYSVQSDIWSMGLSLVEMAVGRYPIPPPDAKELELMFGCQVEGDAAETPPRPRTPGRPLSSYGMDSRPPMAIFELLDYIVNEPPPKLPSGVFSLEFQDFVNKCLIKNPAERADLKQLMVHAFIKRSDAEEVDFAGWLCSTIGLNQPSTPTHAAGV
Sequence of p42 MAP kinase (P28482 whole entry): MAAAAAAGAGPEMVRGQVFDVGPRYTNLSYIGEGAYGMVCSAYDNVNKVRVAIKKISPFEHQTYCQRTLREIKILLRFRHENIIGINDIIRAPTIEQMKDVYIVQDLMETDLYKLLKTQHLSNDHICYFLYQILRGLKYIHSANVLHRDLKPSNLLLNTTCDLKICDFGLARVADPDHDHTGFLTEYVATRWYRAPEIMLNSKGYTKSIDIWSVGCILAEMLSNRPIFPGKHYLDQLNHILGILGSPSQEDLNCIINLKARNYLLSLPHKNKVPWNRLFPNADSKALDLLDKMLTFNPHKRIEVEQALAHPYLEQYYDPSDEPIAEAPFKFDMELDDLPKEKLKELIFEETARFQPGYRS
Sequence of PK B (P31749 whole entry): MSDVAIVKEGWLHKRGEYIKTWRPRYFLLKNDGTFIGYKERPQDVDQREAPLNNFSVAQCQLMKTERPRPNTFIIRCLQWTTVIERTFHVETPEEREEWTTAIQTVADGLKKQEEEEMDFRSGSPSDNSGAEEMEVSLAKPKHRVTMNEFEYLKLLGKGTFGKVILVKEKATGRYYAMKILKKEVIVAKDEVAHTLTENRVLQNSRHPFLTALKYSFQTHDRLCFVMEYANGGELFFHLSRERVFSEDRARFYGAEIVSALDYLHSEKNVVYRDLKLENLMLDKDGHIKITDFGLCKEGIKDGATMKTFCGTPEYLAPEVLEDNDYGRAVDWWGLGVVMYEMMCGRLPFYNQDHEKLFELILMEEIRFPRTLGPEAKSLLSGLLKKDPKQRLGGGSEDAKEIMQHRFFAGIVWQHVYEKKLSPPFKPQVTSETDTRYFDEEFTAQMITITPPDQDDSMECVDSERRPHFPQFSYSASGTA
T1 sequence (P31749 whole entry T308A): as the sequence (P31749 whole entry) above, with T308A counted along it

As to `COc1cccc(-c2cc(=O)c3ccccc3o2)c1N` [PD 98059], in assay [1], the “Effect on insulin activation of RAC-PK” value was “essentially unaffected”. The “Effect on activation of MAPKAP kinase-1” value in assay [2] is “prevented”. In addition, the “Effect on inhibition of GSK3 by insulin” value in assay [3] was “unaffected”.
Consider “HA-308A RAC-PKα: HA-tagged RAC-PKα with Thr308 changed to Ala”, for which the “Activity as percentage of unstimulated WT enzyme” value in [4] was “about 40%”.
Turning to `C[S+]([O-])c1ccc(-c2nc(-c3ccncc3)c(-c3ccc(F)cc3)[nH]2)cc1` (stereo not drawn) [SB 203580], the “Effect on activation of MAPKAP kinase-2” value in [5] is given as “prevented”. For the same molecule, the “Effect on activation of RAC-PKα by insulin or IGF-1” value in assay [6] is recorded as “had no effect”.
Consider `CN(C)CCCn1cc(C2=C(c3c[nH]c4ccccc34)C(=O)NC2=O)c2ccccc21` [GF 109203X], for which the half-maximal inhibitory concentration (IC50) is 100 nM in [7]; 30 nM in assay [9]; 50 nM in [11] (read-out: IC50, MAPKAP-K1 B). The “Inhibition of MAPKK-1 in vitro” value in [8] is “without inhibiting”. For the same molecule, the “Inhibition of PK B in vitro” value in assay [10] is “without inhibiting”. The “Inhibition of c-Raf1 in vitro” value in assay [12] is listed as “without inhibiting”. Besides, the “Inhibition of p42 MAP kinase in vitro” value in [13] was “without inhibiting”.
For “HA-308D/473D RAC-PK: RAC-PKα with both Thr308 and Ser473 mutated to Asp, constitutively active”, the “Activity relative to WT HA-RAC-PKα in unstimulated cells” value in [14] was found to be 40 fold. Besides, the “Activity relative to unstimulated (dephosphorylated) WT HA-RAC-PKα” value in [15] is 18 fold. Besides, the “Increase in GSK3 activity on PP2A treatment” value in assay [16] was 85%.
On to `Cn1cc(C2=C(c3cn(CCCSC(=N)N)c4ccccc34)C(=O)NC2=O)c2ccccc21` [Ro 318220], for which the IC50 in assay [7] was 15 nM; in assay [9] it was 5 nM; in assay [10], 1000 nM; in assay [11] (read-out: IC50, MAPKAP-K1β), 3 nM. Further, the “Inhibition of MAPKK-1 in vitro” value in assay [8] is recorded as “not inhibited significantly”. Also, the “Inhibition of MAPKAP-K2 in vitro” value in assay [17] is listed as “not inhibited significantly”. In assay [12], the “Inhibition of c-Raf1 in vitro” value was “not inhibited significantly”. For the same molecule, the “Inhibition of p42 MAP kinase in vitro” value in assay [13] is reported as “not inhibited significantly”.

B1: RAC-PKα: human RAC protein kinase α, wild type, SEQ ID NO. 3 (protein)
chain: MNDVAIVKEGWLHKRGEYIKTWRPRYFLLKNDGTFIGYKERPQDVEQRESPLNNFSVAQCQLMKTERPRPNTFIIRCLQWTTVIERTFHVETPEEREEWTTAIQTVADGLKRQEEETMDFRSGSPSDNSGAEEMEVALAKPKHRVTMNEFEYLKLLGKGTFGKVILVKEKATGRYYAMKILKKEVIVAKDEVAHTLTENRVLQNSRHPFLTALKYSFQTHDRLCFVMEYANGGELFFHLSRERVFSEDRARFYGAEIVSALDYLHSEKNVVYRDLKLENLMLDKDGHIKITDFGLCKEGIKDGATMKTFCGTPEYLAPEVLEDNDYGRAVDWWGLGVVMYEMMCGRLPFYNQDHEKLFELILMEEIRFPRTLGPEAKSLLSGLLKKDPTQRLGGGSEDAKEIMQHRFFANIVWQDVYEKKLSPPFKPQVTSETDTRYFDEEFTAQMITITPPDQDDSMECVDSERRPHFPQFSYSASGTA
As for B1, in assay [18], the “Increase of basal p70s6k-Myc activity” value is reported as 3.5 fold and the “Increase of insulin-stimulated p70s6k-Myc activity” value is recorded as 3 fold. For the same molecule, in [16], the “Increase in GSK3 activity on PP2A treatment” value is reported as 68%.
